Four molecules from ChEMBL document CHEMBL3414556, “Targeting aldose reductase for the treatment of diabetes complications and inflammatory diseases: new insights and future directions” (J Med Chem, 2015) can be followed below.

Experiment [1] has as its target Aldo-keto reductase family 1 member B10 (Homo sapiens, UniProt O60218). As to the kind of experiment: Inhibition of wild-type N-terminal 6-His tagged AKR1B10 (unknown origin) expressed in Escherichia coli BL21(DE3) assessed as pyridine-3-aldehyde reduction by spectrophotometry.
The target in experiment [2] is T1, Aldo-keto reductase family 1 member B1 (Homo sapiens, UniProt P15121). Put plainly: Inhibition of human AR.
Experiment [3] has as its target T1, Aldo-keto reductase family 1 member B1. As to the kind of experiment: Inhibition of human AR by fluorescence assay.

Molecules are shown by their SMILES.

Aldo-keto reductase family 1 member B10, sequence (O60218 whole entry): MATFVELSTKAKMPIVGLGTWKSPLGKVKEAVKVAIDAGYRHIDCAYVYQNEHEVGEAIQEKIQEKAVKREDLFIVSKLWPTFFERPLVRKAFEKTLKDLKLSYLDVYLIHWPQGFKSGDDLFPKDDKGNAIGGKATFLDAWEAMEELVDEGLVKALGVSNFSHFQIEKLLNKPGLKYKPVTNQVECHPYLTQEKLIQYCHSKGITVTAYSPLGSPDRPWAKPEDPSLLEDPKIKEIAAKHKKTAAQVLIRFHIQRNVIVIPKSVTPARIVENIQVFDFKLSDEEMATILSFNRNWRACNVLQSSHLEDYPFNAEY

Regarding `O=C(O)c1ccccc1Nc1cccc(C(F)(F)F)c1` [FLUFENAMIC ACID], the IC50 – broadly, the concentration that inhibits the measured activity by half – in experiment [1] was found to be 760 nM.

`O=C(O)Cc1ccccc1Nc1c(Cl)cccc1Cl` [DICLOFENAC]: in experiment [1], the IC50 came to 1900 nM.

As for `CC(=O)Oc1ccccc1C(=O)Nc1ncc([N+](=O)[O-])s1` [NITAZOXANIDE], in experiment [2], the IC50 was 8220 nM.

In the case of `Cc1cccc(Nc2ccccc2C(=O)O)c1C` [MEFENAMIC ACID], the values for the IC50 in experiment [3] and in experiment [1] were 77000 nM and 1600 nM, respectively.
